Experimental data: ChEMBL document CHEMBL5385847, “Design, synthesis and biological evaluation of a new class of 7H-pyrrolo[2,3-d]pyrimidine derivatives as Mps1 inhibitors for the treatment of breast cancer” (Eur J Med Chem, 2023)
Active and inactive are the calls of the source. No cut-off for these calls is given here.

What was measured:
[1] = tested on: 4T1-Luc; assay: Induction of DNA damage in mouse 4T1-Luc cells xenografted in BALB/C mouse assessed as increase in gamma-H2AX level at 30 to 60 mg/kg, po qd treated for 15 days by IHC analysis; format: functional, organism-based; conditions: dose 30-60 mg/kg, time 15.0 day
[2] = molecular target: T1, Dual specificity protein kinase TTK (Homo sapiens) (UniProt P33981); assay: Inhibition of Mps1 phosphorylation in mouse 4T1-Luc cells xenografted in BALB/C mouse at 30 to 60 mg/kg, po qd treated for 15 days by IHC analysis; format: organism-based; conditions: dose 30-60 mg/kg, time 15.0 day
T1 sequence (whole entry): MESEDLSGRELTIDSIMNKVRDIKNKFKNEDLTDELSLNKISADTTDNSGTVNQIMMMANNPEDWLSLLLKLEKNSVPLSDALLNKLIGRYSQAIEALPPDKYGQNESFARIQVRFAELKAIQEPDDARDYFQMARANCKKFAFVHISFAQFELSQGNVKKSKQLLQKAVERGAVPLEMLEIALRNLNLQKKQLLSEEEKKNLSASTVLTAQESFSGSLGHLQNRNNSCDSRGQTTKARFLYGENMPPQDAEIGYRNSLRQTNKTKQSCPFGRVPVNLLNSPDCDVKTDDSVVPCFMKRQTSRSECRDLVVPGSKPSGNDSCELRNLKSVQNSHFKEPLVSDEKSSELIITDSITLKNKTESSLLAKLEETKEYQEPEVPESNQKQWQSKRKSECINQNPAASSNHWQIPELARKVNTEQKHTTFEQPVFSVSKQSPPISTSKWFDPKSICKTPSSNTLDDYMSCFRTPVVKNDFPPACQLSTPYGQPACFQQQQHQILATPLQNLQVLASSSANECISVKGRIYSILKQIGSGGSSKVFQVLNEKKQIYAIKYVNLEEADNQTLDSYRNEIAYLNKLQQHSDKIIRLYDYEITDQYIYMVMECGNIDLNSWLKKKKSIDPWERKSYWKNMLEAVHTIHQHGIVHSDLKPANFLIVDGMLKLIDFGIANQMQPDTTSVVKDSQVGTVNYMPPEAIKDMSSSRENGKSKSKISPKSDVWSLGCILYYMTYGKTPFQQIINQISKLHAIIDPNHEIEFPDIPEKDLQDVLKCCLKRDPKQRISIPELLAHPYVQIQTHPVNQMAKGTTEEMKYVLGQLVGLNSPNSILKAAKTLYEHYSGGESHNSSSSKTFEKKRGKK

[3] = Toxicity in BALB/C mouse xenografted with mouse 4T1-Luc cells assessed as histological change in heart at 30 to 60 mg/kg, po qd treated for 15 days by H and E staining based analysis; format: organism-based; conditions: in vivo, 360 h, dose 30-60 mg/kg, time 15 day
[4] = tested on: 4T1; assay: Induction of apoptosis in 4T1 cells assessed as increase in cleaved caspase-3 level upto 3 uM incubated for 48 hrs by Western blot analysis; format: functional, cell-based; conditions: Mus musculus
[5] = tested on: 4T1; assay: Induction of apoptosis in 4T1 cells assessed as increase in cleaved PARP level upto 3 uM incubated for 48 hrs by Western blot analysis; format: functional, cell-based; conditions: Mus musculus
[6] = tested on: MCF7; assay: Induction of apoptosis in human MCF7 cells assessed as increase in cleaved PARP level upto 3 uM incubated for 48 hrs by Western blot analysis; format: functional, cell-based
[7] = tested on: 4T1; assay: Induction of apoptosis in 4T1 cells assessed as necrotic cells at 5 uM incubated for 48 hrs by Annexin V-FITC/PI staining based flow cytometry (reference value: 0.20 %); format: functional, Mus musculus
[8] = tested on: 4T1; assay: Induction of apoptosis in 4T1 cells assessed as early apoptotic cells at 0.5 uM incubated for 48 hrs by Annexin V-FITC/PI staining based flow cytometry (reference value: 0.32 %); format: functional, Mus musculus
[9] = tested on: MCF7; assay: Induction of apoptosis in human MCF7 cells assessed as necrotic cells at 5 uM incubated for 48 hrs by Annexin V-FITC/PI staining based flow cytometry (reference value: 0.03 %); format: functional
[10] = tested on: MCF7; assay: Induction of apoptosis in human MCF7 cells assessed as necrotic cells at 0.5 uM incubated for 48 hrs by Annexin V-FITC/PI staining based flow cytometry (reference value: 0.03 %); format: functional
[11] = tested on: 4T1; assay: Induction of cell cycle arrest in 4T1 cells at G2/M phase assessed as decrease in CDK1 level incubated for 24 hrs by Western blot analysis; format: functional, cell-based; conditions: Mus musculus, dose <= 3.0 µM
[12] = tested on: 4T1; assay: Antiproliferative activity against 4T1 cells assessed as inhibition of cell viability incubated for 24 to 72 hrs by MTT assay; format: functional, cell-based; conditions: Mus musculus, dose <= 10.0 µM, time 24-72 hrs
[13] = tested on: HEK293; assay: Antiproliferative activity against HEK293 cells assessed as inhibition of cell viability by MTT assay; format: toxicity, cell-based; conditions: human
[14] = tested on: AGS; assay: Antiproliferative activity against human AGS cells assessed as inhibition of cell viability upto 10 uM incubated for 72 hrs by MTT assay; format: functional, cell-based
[15] = tested on: HCT-116; assay: Antiproliferative activity against human HCT-116 cells assessed as inhibition of cell viability upto 10 uM incubated for 72 hrs by MTT assay; format: functional, cell-based
[16] = tested on: OVCAR-3; assay: Antiproliferative activity against human OVCAR-3 cells assessed as inhibition of cell viability upto 10 uM incubated for 72 hrs by MTT assay; format: functional, cell-based
[17] = tested on: MCF7; assay: Antiproliferative activity against human MCF7 cells assessed as inhibition of cell viability upto 10 uM by MTT assay; format: functional, cell-based; conditions: time 24-72 hrs, TDE = time-dependent effect
[18] = tested on: A549; assay: Antiproliferative activity against human A549 cells assessed as inhibition of cell viability by MTT assay; format: functional, cell-based
[19] = tested on: ES-2; assay: Antiproliferative activity against human ES2 cells assessed as inhibition of cell viability by MTT assay; format: functional, cell-based
[20] = tested on: OVCAR-3; assay: Antiproliferative activity against human OVCAR-3 cells assessed as inhibition of cell viability by MTT assay; format: functional, cell-based
[21] = tested on: HEY; assay: Antiproliferative activity against human HEY cells assessed as inhibition of cell viability by MTT assay; format: functional, cell-based
[22] = tested on: MCF7; assay: Antiproliferative activity against human MCF7 cells assessed as inhibition of cell viability by MTT assay; format: functional, cell-based
[23] = molecular target: Receptor-type tyrosine-protein kinase FLT3 (Homo sapiens) (UniProt P36888); assay: Inhibition of human FLT3 at 0.1 uM by KINOMEscan assay relative to control
[24] = molecular target: Angiopoietin-1 receptor (Homo sapiens) (UniProt Q02763); assay: Inhibition of human Tie2 at 0.1 uM by KINOMEscan assay relative to control
Chain of Angiopoietin-1 receptor (Homo sapiens) (Q02763 whole entry): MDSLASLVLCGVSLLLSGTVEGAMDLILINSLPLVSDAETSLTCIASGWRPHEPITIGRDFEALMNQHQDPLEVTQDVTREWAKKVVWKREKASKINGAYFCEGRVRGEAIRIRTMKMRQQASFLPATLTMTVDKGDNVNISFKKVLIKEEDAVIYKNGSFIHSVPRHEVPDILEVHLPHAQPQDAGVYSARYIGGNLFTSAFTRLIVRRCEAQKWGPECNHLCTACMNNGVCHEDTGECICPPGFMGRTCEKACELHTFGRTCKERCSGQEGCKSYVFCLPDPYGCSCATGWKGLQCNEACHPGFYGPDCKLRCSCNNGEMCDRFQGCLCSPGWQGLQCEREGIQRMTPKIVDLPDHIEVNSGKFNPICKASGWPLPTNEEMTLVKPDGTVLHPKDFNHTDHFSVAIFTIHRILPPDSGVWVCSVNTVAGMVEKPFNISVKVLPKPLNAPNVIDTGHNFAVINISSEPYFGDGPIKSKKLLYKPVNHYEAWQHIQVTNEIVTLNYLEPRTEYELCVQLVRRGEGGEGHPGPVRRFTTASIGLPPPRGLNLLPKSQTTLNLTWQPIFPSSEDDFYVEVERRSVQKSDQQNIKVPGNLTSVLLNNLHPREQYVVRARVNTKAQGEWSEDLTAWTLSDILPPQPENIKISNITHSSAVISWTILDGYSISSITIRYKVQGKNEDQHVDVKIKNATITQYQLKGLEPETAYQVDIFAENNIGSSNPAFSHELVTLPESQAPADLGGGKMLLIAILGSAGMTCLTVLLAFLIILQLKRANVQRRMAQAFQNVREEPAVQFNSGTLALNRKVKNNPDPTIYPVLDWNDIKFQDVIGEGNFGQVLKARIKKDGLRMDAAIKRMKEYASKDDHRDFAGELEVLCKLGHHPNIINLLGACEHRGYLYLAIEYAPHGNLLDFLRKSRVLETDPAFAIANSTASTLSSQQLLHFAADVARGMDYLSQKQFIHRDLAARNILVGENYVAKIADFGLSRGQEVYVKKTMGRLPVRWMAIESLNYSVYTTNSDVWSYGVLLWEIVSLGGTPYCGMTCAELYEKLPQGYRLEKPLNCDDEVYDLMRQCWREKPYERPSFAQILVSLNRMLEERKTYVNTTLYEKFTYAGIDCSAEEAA

[25] = molecular target: Hepatocyte growth factor receptor (Homo sapiens) (UniProt P08581); assay: Inhibition of human Met at 0.1 uM by KINOMEscan assay relative to control
Chain of Hepatocyte growth factor receptor (Homo sapiens) (P08581 whole entry): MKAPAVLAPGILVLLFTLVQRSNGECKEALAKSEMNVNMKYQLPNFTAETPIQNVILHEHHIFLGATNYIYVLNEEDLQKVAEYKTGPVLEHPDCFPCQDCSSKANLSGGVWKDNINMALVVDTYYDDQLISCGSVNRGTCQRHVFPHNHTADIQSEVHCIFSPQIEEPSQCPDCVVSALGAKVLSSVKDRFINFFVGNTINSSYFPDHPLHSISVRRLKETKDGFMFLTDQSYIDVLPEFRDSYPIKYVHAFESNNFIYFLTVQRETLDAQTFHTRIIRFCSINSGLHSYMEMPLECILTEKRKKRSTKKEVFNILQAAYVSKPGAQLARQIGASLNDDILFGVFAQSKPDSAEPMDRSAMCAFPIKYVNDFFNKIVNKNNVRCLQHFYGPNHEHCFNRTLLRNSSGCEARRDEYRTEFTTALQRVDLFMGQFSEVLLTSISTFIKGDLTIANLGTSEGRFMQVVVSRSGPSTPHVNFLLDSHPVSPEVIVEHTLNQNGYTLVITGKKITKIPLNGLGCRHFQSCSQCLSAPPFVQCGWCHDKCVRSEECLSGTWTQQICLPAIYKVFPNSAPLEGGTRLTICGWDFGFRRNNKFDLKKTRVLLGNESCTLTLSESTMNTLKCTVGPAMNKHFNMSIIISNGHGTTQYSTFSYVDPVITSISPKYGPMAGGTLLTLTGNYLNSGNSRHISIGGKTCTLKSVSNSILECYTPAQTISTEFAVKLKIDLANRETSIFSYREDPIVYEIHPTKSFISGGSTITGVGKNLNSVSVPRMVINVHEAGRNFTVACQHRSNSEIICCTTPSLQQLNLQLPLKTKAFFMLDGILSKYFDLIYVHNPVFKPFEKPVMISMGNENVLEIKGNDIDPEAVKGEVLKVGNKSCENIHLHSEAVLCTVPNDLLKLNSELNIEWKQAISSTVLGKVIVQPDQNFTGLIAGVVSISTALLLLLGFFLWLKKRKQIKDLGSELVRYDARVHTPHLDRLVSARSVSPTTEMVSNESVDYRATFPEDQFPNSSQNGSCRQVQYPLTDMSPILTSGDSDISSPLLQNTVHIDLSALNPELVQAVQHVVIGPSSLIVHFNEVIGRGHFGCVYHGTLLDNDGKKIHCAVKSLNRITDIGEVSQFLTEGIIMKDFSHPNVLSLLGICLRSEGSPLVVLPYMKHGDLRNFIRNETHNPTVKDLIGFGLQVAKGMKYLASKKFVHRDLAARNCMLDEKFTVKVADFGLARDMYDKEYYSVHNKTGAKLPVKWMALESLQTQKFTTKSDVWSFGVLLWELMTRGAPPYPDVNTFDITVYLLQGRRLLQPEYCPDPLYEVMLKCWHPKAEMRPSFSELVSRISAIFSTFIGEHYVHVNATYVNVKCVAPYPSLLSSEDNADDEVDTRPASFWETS

[26] = molecular target: Insulin-like growth factor 1 receptor (Homo sapiens) (UniProt P08069); assay: Inhibition of human IGF-1R at 0.1 uM by KINOMEscan assay relative to control
Chain of Insulin-like growth factor 1 receptor (Homo sapiens) (P08069 31-736 limits assumed): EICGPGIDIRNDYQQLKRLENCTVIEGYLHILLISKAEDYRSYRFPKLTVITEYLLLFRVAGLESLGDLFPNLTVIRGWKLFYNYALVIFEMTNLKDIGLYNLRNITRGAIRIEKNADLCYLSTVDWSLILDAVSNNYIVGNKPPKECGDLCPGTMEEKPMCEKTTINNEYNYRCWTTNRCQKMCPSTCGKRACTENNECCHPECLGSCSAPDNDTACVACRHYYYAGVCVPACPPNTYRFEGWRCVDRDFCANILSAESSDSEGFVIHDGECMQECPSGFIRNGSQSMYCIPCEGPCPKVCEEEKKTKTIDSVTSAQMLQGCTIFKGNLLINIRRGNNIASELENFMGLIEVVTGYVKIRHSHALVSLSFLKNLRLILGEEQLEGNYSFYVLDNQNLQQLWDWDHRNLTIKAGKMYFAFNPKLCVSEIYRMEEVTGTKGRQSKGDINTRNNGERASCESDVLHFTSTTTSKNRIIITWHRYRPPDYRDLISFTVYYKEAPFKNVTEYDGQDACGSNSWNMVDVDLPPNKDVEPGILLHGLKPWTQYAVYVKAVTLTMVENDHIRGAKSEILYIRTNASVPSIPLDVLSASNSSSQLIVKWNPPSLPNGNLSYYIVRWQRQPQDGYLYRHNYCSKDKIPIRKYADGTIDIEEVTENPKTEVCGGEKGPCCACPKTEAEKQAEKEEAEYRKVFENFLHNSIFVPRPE
Chain of Insulin-like growth factor 1 receptor (Homo sapiens) (P08069 741-1367 limits assumed): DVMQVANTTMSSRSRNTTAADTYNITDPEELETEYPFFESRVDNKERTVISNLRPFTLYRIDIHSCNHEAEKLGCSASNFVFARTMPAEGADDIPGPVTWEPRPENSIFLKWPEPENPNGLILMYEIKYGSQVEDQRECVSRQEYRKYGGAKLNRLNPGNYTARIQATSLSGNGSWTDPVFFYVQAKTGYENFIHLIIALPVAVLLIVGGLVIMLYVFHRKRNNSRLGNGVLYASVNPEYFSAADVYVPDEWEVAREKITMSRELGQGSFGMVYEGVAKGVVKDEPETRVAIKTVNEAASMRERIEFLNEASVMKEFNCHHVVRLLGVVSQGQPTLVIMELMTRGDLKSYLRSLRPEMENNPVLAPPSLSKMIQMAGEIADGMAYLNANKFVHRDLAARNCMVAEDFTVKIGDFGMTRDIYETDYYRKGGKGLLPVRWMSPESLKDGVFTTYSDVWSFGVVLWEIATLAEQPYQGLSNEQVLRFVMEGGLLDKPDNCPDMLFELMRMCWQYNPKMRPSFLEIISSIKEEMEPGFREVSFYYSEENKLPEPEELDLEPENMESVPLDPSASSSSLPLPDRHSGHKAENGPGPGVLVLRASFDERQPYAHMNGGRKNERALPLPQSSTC

[27] = molecular target: Insulin-like growth factor 1 receptor (Homo sapiens) (UniProt P08069); assay: Inhibition of human IGF-1R at 1 uM by KINOMEscan assay relative to control
[28] = molecular target: Proto-oncogene tyrosine-protein kinase Src (Homo sapiens) (UniProt P12931); assay: Inhibition of human cSRC at 1 uM by KINOMEscan assay relative to control
Chain of Proto-oncogene tyrosine-protein kinase Src (Homo sapiens) (P12931 2-536 limits assumed): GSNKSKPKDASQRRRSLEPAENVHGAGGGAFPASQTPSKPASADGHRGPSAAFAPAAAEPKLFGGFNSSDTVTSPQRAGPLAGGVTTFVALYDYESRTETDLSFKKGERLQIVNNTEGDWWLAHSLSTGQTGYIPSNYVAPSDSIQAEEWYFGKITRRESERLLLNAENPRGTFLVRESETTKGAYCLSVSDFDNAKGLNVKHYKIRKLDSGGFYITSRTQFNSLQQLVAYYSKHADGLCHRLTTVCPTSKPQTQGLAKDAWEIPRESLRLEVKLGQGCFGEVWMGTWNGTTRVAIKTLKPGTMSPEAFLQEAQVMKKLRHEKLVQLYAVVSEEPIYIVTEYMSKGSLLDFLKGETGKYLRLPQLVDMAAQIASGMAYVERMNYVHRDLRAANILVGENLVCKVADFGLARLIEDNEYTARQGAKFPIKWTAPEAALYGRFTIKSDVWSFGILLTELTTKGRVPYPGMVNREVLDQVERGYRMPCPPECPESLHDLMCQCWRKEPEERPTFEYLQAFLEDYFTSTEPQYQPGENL

SMILES: CN1CCN(c2ccc(Nc3nc(-n4nc(N)c5ccccc54)c4cc[nH]c4n3)cc2)CC1
- Activity [1]: Active
- inhibition [2]: Active
- Activity [3]: Non-Toxic
- Activity [4]: Active
- Activity [5]: Active
- Activity [6]: Active
- Activity [7]: 0.32%
- Activity [8]: 1.17%
- Activity [9]: 0.38%
- Activity [10]: 0.17%
- Activity [11]: Dose-Dependent Effect
- inhibition [12]: Dose-Dependent Effect
- Activity [13]: Non-Toxic
- inhibition [14]: Active
- inhibition [15]: Active
- inhibition [16]: Active
- inhibition [17]: Tde
- IC50 [18]: 2030 nM
- IC50 [19]: > 3000 nM
- IC50 [20]: > 3000 nM
- IC50 [21]: > 3000 nM
- IC50 [22]: 370 nM
- inhibition [23]: 86%
- inhibition [24]: 28%
- inhibition [25]: 53%
- inhibition [26]: 43%
- inhibition [27]: 98%
- inhibition [28]: 96%
